Assay results as given in PubChem BioAssay (NCI).
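96-well plates; 48 h exposure; 5 concentrations. Endpoints by linear interpolation between flanking doses. Not reached: highest tested concentration assigned. Here, GI50 denotes the concentration required for 50% inhibition of growth. Definition used: TGI = concentration required for complete inhibition of growth.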

Columns and labels:
Assay in all cases: DTP human tumour cell line panel, 48 h
OVCAR-3 ovarian = system: OVCAR-3 ovarian
NCI-H522 lung = system: NCI-H522 lung
HT29 colon = system: HT29 colon
SW-620 colon = system: SW-620 colon
OVCAR-4 ovarian = system: OVCAR-4 ovarian
SF-539 CNS = system: SF-539 CNS
RPMI-8226 leukemia = system: RPMI-8226 leukemia
OVCAR-5 ovarian = system: OVCAR-5 ovarian
BT-549 breast = system: BT-549 breast
MCF7 breast = system: MCF7 breast
U251 CNS = system: U251 CNS
IGROV1 ovarian = system: IGROV1 ovarian
DU-145 prostate = system: DU-145 prostate
CCRF-CEM leukemia = system: CCRF-CEM leukemia
NCI-H460 lung = system: NCI-H460 lung
T-47D breast = system: T-47D breast
UACC-257 melanoma = system: UACC-257 melanoma
SF-268 CNS = system: SF-268 CNS
SNB-19 CNS = system: SNB-19 CNS
KM12 colon = system: KM12 colon
NCI-H23 lung = system: NCI-H23 lung
MOLT-4 leukemia = system: MOLT-4 leukemia
NCI/ADR-RES ovarian = system: NCI/ADR-RES ovarian
ACHN renal = system: ACHN renal
SK-MEL-5 melanoma = system: SK-MEL-5 melanoma
OVCAR-8 ovarian = system: OVCAR-8 ovarian
HL-60(TB) leukemia = system: HL-60(TB) leukemia
A549 NSCLC = system: A549 NSCLC
NCI-H226 lung = system: NCI-H226 lung
CAKI-1 renal = system: CAKI-1 renal
A498 renal = system: A498 renal
SK-MEL-28 melanoma = system: SK-MEL-28 melanoma
UO-31 renal = system: UO-31 renal
COLO 205 colon = system: COLO 205 colon
LOX IMVI melanoma = system: LOX IMVI melanoma
SK-OV-3 ovarian = system: SK-OV-3 ovarian
786-0 renal = system: 786-0 renal
MDA-MB-435 = system: MDA-MB-435
HOP-62 NSCLC = system: HOP-62 NSCLC
M14 melanoma = system: M14 melanoma
K-562 leukemia = system: K-562 leukemia
PC-3 prostate = system: PC-3 prostate
MDA-MB-231 breast = system: MDA-MB-231 breast
SN12C renal = system: SN12C renal
SF-295 CNS = system: SF-295 CNS
SNB-75 CNS = system: SNB-75 CNS
SK-MEL-2 melanoma = system: SK-MEL-2 melanoma
HCT-116 colon = system: HCT-116 colon
HS 578T breast = system: HS 578T breast
HCT-15 colon = system: HCT-15 colon

For `O=C1C(=O)/C(=C/c2ccccc2)CCCCCC/C1=C/c1ccccc1`, the GI50 (OVCAR-3 ovarian) was 1.92 µM, the TGI (OVCAR-3 ovarian) was 3.63 µM and the GI50 (NCI-H522 lung) was 4.68 µM. For the same compound, the TGI (NCI-H522 lung) was 16.3 µM, the GI50 (HT29 colon) was 2.04 µM and the TGI (HT29 colon) was 3.74 µM. It also gave a GI50 (SW-620 colon) of 3.21 µM, a TGI (SW-620 colon) of 11.6 µM and a GI50 (OVCAR-4 ovarian) of 2.78 µM. It also gave a TGI (OVCAR-4 ovarian) of 8.47 µM, a GI50 (SF-539 CNS) of 1.98 µM and a TGI (SF-539 CNS) of 3.95 µM. It also gave a GI50 (RPMI-8226 leukemia) of 1.9 µM, a TGI (RPMI-8226 leukemia) of 5.96 µM and a GI50 (OVCAR-5 ovarian) of 2.68 µM. It also gave a TGI (OVCAR-5 ovarian) of 7.93 µM, a GI50 (BT-549 breast) of 2.33 µM and a TGI (BT-549 breast) of 5 µM. The GI50 (MCF7 breast) was 3.24 µM, the TGI (MCF7 breast) was 31.8 µM and the GI50 (U251 CNS) was 1.62 µM. It also gave a TGI (U251 CNS) of 2.97 µM, a GI50 (IGROV1 ovarian) of 2.93 µM and a TGI (IGROV1 ovarian) of 8.7 µM. For the same compound, the GI50 (DU-145 prostate) was 3.73 µM, the TGI (DU-145 prostate) was 14 µM and the GI50 (CCRF-CEM leukemia) was 3.05 µM. For the same compound, the TGI (CCRF-CEM leukemia) was 17.9 µM, the GI50 (NCI-H460 lung) was 2.43 µM and the TGI (NCI-H460 lung) was 6.09 µM. For the same compound, the GI50 (T-47D breast) was 5.09 µM, the TGI (T-47D breast) was over 100 µM and the GI50 (UACC-257 melanoma) was 2.3 µM. For the same compound, the TGI (UACC-257 melanoma) was 6.15 µM, the GI50 (SF-268 CNS) was 2.74 µM and the TGI (SF-268 CNS) was 8.28 µM. The GI50 (SNB-19 CNS) was 5.3 µM, the TGI (SNB-19 CNS) was 20.2 µM and the GI50 (KM12 colon) was 2.7 µM. It also gave a TGI (KM12 colon) of 6.4 µM, a GI50 (NCI-H23 lung) of 3.38 µM and a TGI (NCI-H23 lung) of 13.7 µM. It also gave a GI50 (MOLT-4 leukemia) of 3.17 µM, a TGI (MOLT-4 leukemia) of 10.7 µM and a GI50 (NCI/ADR-RES ovarian) of 4.78 µM. It also gave a TGI (NCI/ADR-RES ovarian) of over 100 µM, a GI50 (ACHN renal) of 2.57 µM and a TGI (ACHN renal) of 6.5 µM. The GI50 (SK-MEL-5 melanoma) was 3.25 µM, the TGI (SK-MEL-5 melanoma) was 12.1 µM and the GI50 (OVCAR-8 ovarian) was 3.14 µM. For the same compound, the TGI (OVCAR-8 ovarian) was 12.7 µM, the GI50 (HL-60(TB) leukemia) was 2.96 µM and the TGI (HL-60(TB) leukemia) was 8.87 µM. It also gave a GI50 (A549 NSCLC) of 2.33 µM, a TGI (A549 NSCLC) of 7.16 µM and a GI50 (NCI-H226 lung) of 1.76 µM. For the same compound, the TGI (NCI-H226 lung) was 3.54 µM, the GI50 (CAKI-1 renal) was 3.11 µM and the TGI (CAKI-1 renal) was 18.6 µM. For the same compound, the GI50 (A498 renal) was 13.7 µM, the TGI (A498 renal) was 28.4 µM and the GI50 (SK-MEL-28 melanoma) was 3.9 µM. For the same compound, the TGI (SK-MEL-28 melanoma) was 15.4 µM, the GI50 (UO-31 renal) was 1.89 µM and the TGI (UO-31 renal) was 3.88 µM. It also gave a GI50 (COLO 205 colon) of 10.1 µM, a TGI (COLO 205 colon) of 32.6 µM and a GI50 (LOX IMVI melanoma) of 1.82 µM. For the same compound, the TGI (LOX IMVI melanoma) was 3.53 µM, the GI50 (SK-OV-3 ovarian) was 8.9 µM and the TGI (SK-OV-3 ovarian) was 70.3 µM. The GI50 (786-0 renal) was 1.82 µM, the TGI (786-0 renal) was 3.33 µM and the GI50 (MDA-MB-435) was 2.21 µM. For the same compound, the TGI (MDA-MB-435) was 5.05 µM, the GI50 (HOP-62 NSCLC) was 3.44 µM and the TGI (HOP-62 NSCLC) was 10.5 µM. For the same compound, the GI50 (M14 melanoma) was 2.29 µM, the TGI (M14 melanoma) was 5.31 µM and the GI50 (K-562 leukemia) was 2.94 µM. The TGI (K-562 leukemia) was 8.77 µM, the GI50 (PC-3 prostate) was 3.19 µM and the TGI (PC-3 prostate) was 17.1 µM. The GI50 (MDA-MB-231 breast) was 2.63 µM, the TGI (MDA-MB-231 breast) was 6.52 µM and the GI50 (SN12C renal) was 2.35 µM. For the same compound, the TGI (SN12C renal) was 5.58 µM, the GI50 (SF-295 CNS) was 2.58 µM and the TGI (SF-295 CNS) was 7 µM. It also gave a GI50 (SNB-75 CNS) of 2.86 µM, a TGI (SNB-75 CNS) of 17.6 µM and a GI50 (SK-MEL-2 melanoma) of 16.6 µM. For the same compound, the TGI (SK-MEL-2 melanoma) was 34.4 µM, the GI50 (HCT-116 colon) was 1.5 µM and the TGI (HCT-116 colon) was 2.82 µM. The GI50 (HS 578T breast) was 8.06 µM, the TGI (HS 578T breast) was over 100 µM and the GI50 (HCT-15 colon) was 1.68 µM. It also gave a TGI (HCT-15 colon) of 3.24 µM.
